Measurements reported in patent US8450454B2, “Compositions for inhibiting ABAD/ABeta protein interaction” (The Trustees of Columbia University in the City of New York, priority 2004, dated 2013).
Ends that are not written are not given here.

B1: GST-ABAD(159-261): GST-ABAD truncation mutant, residues 159-261 (protein)
chain: FEGQVGQAAYSASKGGIVGMTLPIARDLAPIGIRVMTIAPGLFGTPLLTSLPEKVCNFLASQVPFPSRLGDPAEYAHLVQAIIENPFLNGEVIRLDGAIRMQP
modifications: left off: a dimerising Fc or GST
B2: GST-ABAD(1-186): GST-ABAD truncation mutant, residues 1-186 (protein)
chain: MAAACRSVKGLVAVITGGASGLGLATAERLVGQGASAVLLDLPNSGGEAQAKKLGNNCVFAPADVTSEKDVQTALALAKGKFGRVDVAVNCAGIAVASKTYNLKKGQTHTLEDFQRVLDVNLMGTFNVIRLVAGEMGQNEPDQGGQRGVIINTASVAAFEGQVGQAAYSASKGGIVGMTLPIARDL
modifications: left off: a dimerising Fc or GST
B3: S98A, K99A, Y101A: site-directed ABAD mutant (protein, UniProt Q99714 2-261, looked up, variant S98A K99A Y101A)
3-hydroxyacyl-CoA …: AAACRSVKGLVAVITGGASGLGLATAERLVGQGASAVLLDLPNSGGEAQAKKLGNNCVFAPADVTSEKDVQTALALAKGKFGRVDVAVNCAGIAVAAATANLKKGQTHTLEDFQRVLDVNLMGTFNVIRLVAGEMGQNEPDQGGQRGVIINTASVAAFEGQVGQAAYSASKGGIVGMTLPIARDLAPIGIRVMTIAPGLFGTPLLTSLPEKVCNFLASQVPFPSRLGDPAEYAHLVQAIIENPFLNGEVIRLDGAIRMQP
B4: GST-ABAD(1-158): GST-ABAD truncation mutant, residues 1-158 (protein)
chain: MAAACRSVKGLVAVITGGASGLGLATAERLVGQGASAVLLDLPNSGGEAQAKKLGNNCVFAPADVTSEKDVQTALALAKGKFGRVDVAVNCAGIAVASKTYNLKKGQTHTLEDFQRVLDVNLMGTFNVIRLVAGEMGQNEPDQGGQRGVIINTASVAA
modifications: left off: a dimerising Fc or GST

Assays:
cultured neurons [1] = experiment: DNA fragmentation (Cell Death Detection ELISA) in cultured neurons; format: cell-based, mouse; details: neurons from Tg mAPP/ABAD mice (spontaneous) and Tg ABAD mice exposed to Aβ, peptide pretreatment
cultured neurons [2] = experiment: LDH release from cultured neurons; format: cell-based, mouse; details: neurons from Tg mAPP/ABAD mice (spontaneous) and Tg ABAD mice exposed to Aβ, peptide pretreatment
ABAD = biological target: T1, ABAD (Homo sapiens, UniProt Q99714); experiment: Binding of fluorescein-labeled ABAD to amyloid-related peptide immobilized on microtiter wells
T1 construct: made in house
T1 sequence (Q99714 1-261): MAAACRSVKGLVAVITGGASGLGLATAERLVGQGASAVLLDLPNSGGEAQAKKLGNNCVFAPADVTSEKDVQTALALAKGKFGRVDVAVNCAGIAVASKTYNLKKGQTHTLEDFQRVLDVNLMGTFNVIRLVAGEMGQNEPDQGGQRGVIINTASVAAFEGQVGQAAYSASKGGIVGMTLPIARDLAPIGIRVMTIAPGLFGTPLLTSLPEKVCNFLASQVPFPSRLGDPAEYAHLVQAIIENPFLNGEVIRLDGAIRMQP

[3] = biological target: T2, ABAD-Aβ (1-40) interaction (Homo sapiens, UniProt P05067); experiment: Surface plasmon resonance (Biacore): inhibition of Aβ (1-40) binding to immobilized ABAD; details: one-site competitive inhibition fit
T2 construct: made in house
T2 sequence (P05067 672-711): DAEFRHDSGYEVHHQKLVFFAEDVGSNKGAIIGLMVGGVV
Experimental: (§1) 3) and ABAD reverse peptide (ABAD-RP, residues 120-92) were synthesized by Biotechnology Lab at Yale University. For binding studies, ABAD was immobilized on CM5 sensor chip (29). […] The reaction/binding buffer contained 50 mM Hepes at pH 7.4, 0.15 M NaCl, 1 mM EDTA, and 0.005% Tween 20. Data analysis was performed using Biacore X biosensor system (Uppsala, Sweden) and BIA evaluation 3.0 software (Biacore, Sweden). Response data are plotted in Resonance Units versus ABAD peptide concentrations (nM), and were fit to a one-site model for competitive inhibition to obtain the Ki.

[4] = biological target: T3, ABAD-Aβ (1-42) interaction (Homo sapiens, UniProt P05067); experiment: Surface plasmon resonance (Biacore): inhibition of Aβ (1-42) binding to immobilized ABAD; details: one-site competitive inhibition fit
T3 construct: made in house
T3 sequence (P05067 672-713): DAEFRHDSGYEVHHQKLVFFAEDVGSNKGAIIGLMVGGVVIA
Experimental: as §1

Aβ (1-42) = Aβ (1-42) (Homo sapiens, UniProt P05067); experiment: Binding of 125I-labeled GST-ABAD or ABAD mutants to immobilized Aβ (1-42); set-up: key: +: Specific binding comparable to that observed with wild type ABAD; −: No observed specific binding; details: 125I-labeled GST-ABAD or ABAD to immobilized Aβ (1-42)
Aβ (1-42), sequence (P05067 672-713): as above

Aβ (1-40) = Aβ (1-40) (Homo sapiens, UniProt P05067); experiment: Surface plasmon resonance: Aβ (1-40) binding to immobilized wild-type or mutant ABAD; details: ABAD immobilized on sensor chip, Aβ (1-40) mobile phase
Aβ (1-40), sequence (P05067 672-711): as the sequence (P05067 672-711) above
Experimental: as §1, with “[…]; SEQ ID NO. 3)” for “3)”

Molecule	binding to ABAD (in words) (ABAD)	Aβ Binding (Aβ (1-42))	other results
CC[C@H](C)[C@H](NC(=O)CNC(=O)[C@H](C)N)C(=O)N[C@@H](C)C(=O)N[C@H](C(=O)N[C@@H](C)C(=O)N[C@@H](CO)C(=O)N[C@@H](CCCCN)C(=O)N[C@H](C(=O)N[C@@H](Cc1ccc(O)cc1)C(=O)N[C@@H](CC(N)=O)C(=O)N[C@@H](CC(C)C)C(=O)N[C@@H](CCCCN)C(=O)N[C@@H](CCCCN)C(=O)NCC(=O)N[C@@H](CCC(N)=O)C(=O)N[C@H](C(=O)N[C@@H](Cc1c[nH]cn1)C(=O)N[C@H](C(=O)N[C@@H](CC(C)C)C(=O)N[C@@H](CCC(=O)O)C(=O)N[C@@H](CC(=O)O)C(=O)N[C@@H](Cc1ccccc1)C(=O)N[C@@H](CCC(N)=O)C(=O)N[C@@H](CCCNC(=N)N)C(=O)N[C@H](C(=O)N[C@@H](CC(C)C)C(=O)N[C@@H](CC(=O)O)C(=O)N[C@H](C(=O)O)C(C)C)C(C)C)[C@@H](C)O)[C@@H](C)O)[C@@H](C)O)C(C)C [ABAD-DP]			DNA fragmentation (cytotoxicity) (cultured neurons [1]): attenuated cytotoxicity; LDH release (cytotoxicity) (cultured neurons [2]): attenuated cytotoxicity
CC[C@H](C)[C@H](NC(=O)[C@H](C)NC(=O)CNC(=O)[C@H](Cc1ccccc1)NC(=O)[C@H](CC(N)=O)NC(=O)[C@H](CC(N)=O)NC(=O)[C@H](CO)NC(=O)[C@H](CO)NC(=O)[C@H](Cc1c[nH]cn1)NC(=O)[C@@H](NC(=O)[C@H](CC(C)C)NC(=O)[C@H](Cc1ccccc1)NC(=O)[C@H](CC(N)=O)NC(=O)[C@H](C)NC(=O)[C@H](CC(C)C)NC(=O)[C@H](CCCNC(=N)N)NC(=O)[C@H](CCC(N)=O)NC(=O)[C@@H](NC(=O)[C@H](C)NC(=O)[C@@H]1CSSC[C@H](NC(=O)[C@@H](N)CCCCN)C(=O)N[C@@H](CC(N)=O)C(=O)N[C@@H]([C@@H](C)O)C(=O)N[C@@H](C)C(=O)N[C@@H]([C@@H](C)O)C(=O)N1)[C@@H](C)O)C(C)C)C(=O)N[C@@H](CC(C)C)C(=O)N[C@@H](CO)C(=O)N[C@@H](CO)C(=O)N[C@H](C(=O)N[C@@H](CC(N)=O)C(=O)N[C@H](C(=O)NCC(=O)N[C@@H](CO)C(=O)N[C@@H](CC(N)=O)C(=O)N[C@H](C(=O)N[C@@H](Cc1ccc(O)cc1)C(N)=O)[C@@H](C)O)C(C)C)[C@@H](C)O [Amylin]	did not bind		
CC(C)C[C@H](NC(=O)[C@H](CCCCN)NC(=O)[C@H](CCC(N)=O)NC(=O)[C@H](Cc1c[nH]cn1)NC(=O)[C@H](Cc1c[nH]cn1)NC(=O)[C@@H](NC(=O)[C@H](CCC(=O)O)NC(=O)[C@H](Cc1ccc(O)cc1)NC(=O)CNC(=O)[C@H](CO)NC(=O)[C@H](CC(=O)O)NC(=O)[C@H](Cc1c[nH]cn1)NC(=O)[C@H](CCCNC(=N)N)NC(=O)[C@H](Cc1ccccc1)NC(=O)[C@H](CCC(=O)O)NC(=O)[C@H](C)NC(=O)[C@@H](N)CC(=O)O)C(C)C)C(=O)N[C@H](C(=O)N[C@@H](Cc1ccccc1)C(=O)N[C@@H](Cc1ccccc1)C(=O)O)C(C)C [Aβ 1-20]	dose-dependent binding		
GSNKGAIIGLM [Aβ 25-35]	no specific binding		Kd (ABAD; peptide immobilized on microtiter wells, fluorescein-labeled ABAD added): > 1000 nM
VDLVRQFDELTHTQGKKLNYTKSAVAIGA [ABAD-RP, reference compound]			inhibitory constant, binding of Aβ (1-40) to immobilized intact ABAD [3]: completely inactive; inhibitory constant, binding of Aβ (1-42) to immobilized intact ABAD [4]: completely inactive; DNA fragmentation (cytotoxicity) (cultured neurons [1]): not
B1		−	
B2		+	
B3		−	interaction with Aβ in surface plasmon resonance (Aβ (1-40)): no specific interaction
B4		+	
